Experimental findings from patent US11286231B2, “Hydrogen-bonding compounds, compositions comprising the same, and methods of preparing and using the same” (Wake Forest University Health Sciences, priority 2016, dated 2022) are described below.

What all share (type): physicochemical
Data set [1] is described as follows: Preliminary rheology, shear elastic modulus G′ of modular HA hydrogel with catechol amine. The note with it: catechol amine bound to thiolated HA/gelatin hydrogel via thiol-alkyne, FIG. 1. The text has this:
(§1) These increases were not observed in control groups. This gives validation to the activity of the newly added catechol components of the system. […] Following this observation we employed the rheometer using a customized protocol to apply a tensile stretch to hydrogels that had immobilized between the base and testing geometry of the rheometry. The geometry was brought into contact with the sample and lowered until 0.4 N normal force was reached by the load cell. At this point, the sample was allowed to equilibrate for 30 seconds, after which the rheometer applied constant displacement vertically at 5 um/s, raising the geometry 1000 um, during which time resistive force (“stickiness”) was measured by the load cell every second.
Mechanical bulk properties. Hydrogels will be formed in custom molded 12 mm dishes and assessed by rheology to determine bulk material shear elastic modulus. […]

Data set [2] in a line: Preliminary rheometer tensile stretch (stickiness) test of catechol amine hydrogel.
Text: as §1

The nature of data set [3]: Oscillatory shear-stress sweep test, shear elastic modulus G′ of HyStem hydrogels. As for the experimental part:
To a 2 mL centrifuge tube, 200 μL of Heprasil® solution (1% w/v solution, thiolated HA component of HyStem kit), 200 μL of Gelin-S® solution (1% w/v, thiolated gelatin component of HyStem kit), 50 μL of Extralink® solution (2% w/v, polyethylene glycol diacrylate component of HyStem kit), and 50 μL of a modular catecholamine (C1.1) or amide […] solutions (0.25%-1.5% w/v, see Rheology section for specifics) were added and mixed by softly pipetting the solution up and down carefully to avoid creating bubbles. For control experiments the modular catecholamide or amine solutions were replaced with an equivalent volume of sterile deionized water. For rheology or cell culture studies, the reaction mixture was placed into wells of an appropriate size and exposed to UV radiation (˜222 nm) for 1-5 seconds.
A Discovery HR-2 Rheometer (TA Instruments, New Castle, Del.) with an 8 mm geometry was used to collect the rheological data. After reaction set-up, 200 μL of the reaction mixture was transferred into a 12 mm diameter×5 mm depth PDMS well. The PDMS well containing the reaction mixture was then exposed to UV radiation for 5 seconds at a distance of 1 cm. Photo-initiated polymerization and formation of a hydrogel occurred instantaneously. To ensure standard conditions across all experiments the geometry was lowered into the gels until a calibration normal force of 0.4N was achieved. Following, an oscillatory shear-stress sweep test (0.6-10.0 Pa, 1.0 Hz, 25° C.) was applied to hydrogels containing varying concentrations (0%, 1.0%, and 1.5% w/v) of modular amine compounds, C1.1 and C1.2. This experiment was repeated in triplicate for each condition. Average shear elastic modulus, G′, values were determined for each condition.
Shear-stress sweep tests (0.6-10.0 Pa, 1.0 Hz, 25° C.) were applied to hydrogels containing varying solution concentrations (0%, 1.0%, and 1.5% WAV) of modular amine compounds, C1.1/C1.2. Reported here are the average shear elastic modulus G′ values for n=3 runs for each condition (FIGS. 3 and 4). The reported uncertainties were calculated from standard deviations between n=3 averaged G′ values of each condition. In FIG. 3 we report the following G′ values: (2.136×10^3+/−3.988×10^2) Pa for the HyStem® control, (3.166×103+/−6.772×10^2) Pa for the HyStem®+1% w/v catecholamine, and (3.648×103+/8.047×102) Pa for the HyStem®+1.5% w/v catecholamine. […] Thus it was observed that when increasing the % w/v of the catecholamine (C1.1) solution used from 0% w/v, 1% w/v, 1.5% w/v, a proportional increase in G′ was observed, i.e., 1 equivalent of C1.1=1000 Pa increase in G′ and 1.5 equivalent=1500 Pa increase in the G′ of the hydrogel matrix.

As to `C#CCNCc1ccc(O)c(O)c1` [Compound C1.1], in data set [1], the “G′ values of the hydrogel constructs (change)” value is listed as “further increased the G′ values”. The “increase in tensile resistance” value in data set [2] (catechol amine containing hydrogel, 5 um/s, 1000 um, FIG. 2, preliminary) stood at 3 fold. For the same molecule, in data set [2] (qualitative), the “stickiness of hydrogel constructs during mechanical shear testing” value is “significantly more “stickiness””. Further, the entries for the “increase in G′ vs HyStem control” value in data set [3] (1.0% w/v compound solution) and in data set [3] (1.5% w/v compound solution) were ~1.029×10^3+/−3.280×10^1 Pa and 1.512×10^3+/−3.469×10^1 Pa, respectively. The “increase in G′ over gels containing 1.0% w/v C1.1” value in data set [3] (1.5% w/v C1.1 solution) stood at 477 pa.
Regarding `C#CCNC(=O)Cc1ccc(O)c(O)c1` [Compound C1.2], in data set [3] (1.0% w/v C1.2 solution), the “higher increase in G′ over gels containing 1.0% w/v C1.1 solution” value is 788 Pa. The “increase in G′ vs HyStem control” value in data set [3] (1.0% w/v compound solution) is ~1.817×10^3+/−2.457×10^1 Pa; in data set [3] (1.5% w/v compound solution), 1.989×10^3+/−1.378×10^1 Pa. Besides, the “shear elastic modulus G′” value in data set [3] (Hystem + 1.0% w/v compound solution, n=3) is on record as 3.953×10^3+/−1.160×10^2 Pa.
